# Data as given in patent US20250388593A1 (MITSUBISHI TANABE PHARMA CORPORATION, priority 2023, published 2025).
# Biological target: CRBN truncate (318-426) (Homo sapiens (Human), UniProt Q96SW2)
# Test: Measurement of molecular interactions using surface plasmon resonance (SPR), Biacore T200
# Type: binding
# Conditions: 25° C., immobilized CRBN truncate, upper limit of measurement 200 μM
# How it was run: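 C-terminally Avi-tagged CRBN (318-426) captured on a streptavidin SA chip on a Biacore T200. Running buffer 10 mM HEPES pH 7.5, 150 mM NaCl, 1 mM TCEP, 0.005% Tween 20, 2% DMSO; 60 s contact, 120 s dissociation.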
# CRBN truncate (318-426), sequence (Q96SW2 318-426): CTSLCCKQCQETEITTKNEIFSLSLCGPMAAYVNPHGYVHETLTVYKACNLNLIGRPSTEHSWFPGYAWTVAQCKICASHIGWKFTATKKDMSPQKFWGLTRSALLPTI
row,Kd [µM],SMILES
1,≥ 100,"CC(C)(C)OC(=O)NCCCCCOc1ccc2nc(N3CC4(CC(=O)N(C5CCC(=O)NC5=O)C4=O)C3)sc2c1 (stereo not shown) [Example 241, tert-Butyl N-[5-[[2-[6-(2,6-dioxopiperidin-3-yl)-5,7-dioxo-2,6-diazaspiro[3.4]octan-2-yl]-1,3-benzothiazol-6-yl]oxy]pentyl]carbamate]"
2,≥ 100,"O=C1COCC(NC(=O)c2cccc(-c3ccccc3)c2)C(=O)N1 (stereo not shown) [Example 22, N-(3,5-dioxo-1,4-oxazepan-6-yl)-3-phenylbenzamide]"
3,< 50,"Cc1sc2c(c1C)C(c1ccc(Cl)cc1)=N[C@@H](CC(=O)NCCCCCCCCNC(=O)CN1C(=O)[C@@](C)(N3CCCC(=O)NC3=O)c3ccccc31)c1nnc(C)n1-2 [Example 352, 2-[(9S)-7-(4-Chlorophenyl)-4,5,13-trimethyl-3-thia-1,8,11,12-tetraazatricyclo[8.3.0.02,6]trideca-2(6),4,7,10,12-pentaen-9-yl]-N-[8-[[2-[3-(2,4-dioxo-1,3-diazepan-1-yl)-3-methyl-2-oxoindol-1-yl]acetyl]amino]octyl]acetamide]"
4,≥ 100,"O=C1CCCC2(CCN(c3ncc(Br)cn3)C2)C(=O)N1 (stereo not shown) [Example 127, 2-(5-Bromopyrimidin-2-yl)-2,7-diazaspiro [4.6]undecane-6,8-dione]"
5,50 to 100,"CC1(N2CC=CC(=O)NC2=O)C(=O)N(CC(=O)OCc2ccccc2)c2ccccc21 (stereo not shown) [Example 283, Benzyl 2-[3-(2,7-dioxo-4H-1,3-diazepin-3-yl)-3-methyl-2-oxoindol-1-yl]acetate]"
6,< 50,"Cc1sc2c(c1C)C(c1ccc(Cl)cc1)=N[C@@H](CC(=O)NCCCCCCCNC(=O)COc1cccc(C(=O)NC3CCCC(=O)NC3=O)n1)c1nnc(C)n1-2 (stereo partly drawn) [Example 347, 6-[2-[7-[[2-[(9S)-7-(4-chlorophenyl)-4,5,13-trimethyl-3-thia-1,8,11,12-tetraazatricyclo[8.3.0.02,6]trideca-2(6),4,7,10,12-pentaen-9-yl]acetyl]amino]heptylamino]-2-oxo-ethoxy]-N-(2,7-dioxoazepan-3-yl)pyridine-2-carboxamide]"
7,≥ 100,"O=C1CCCC(n2ncc(-c3ccccc3)cc2=O)C(=O)N1 (stereo not shown) [Example 247, 3-(6-oxo-4-phenylpyridazin-1-yl)azepane-2,7-dione]"
8,< 50,"O=C1CCCC2(CCN(c3ncc([N+](=O)[O-])cc3Cl)C2)C(=O)N1 (stereo not shown) [Example 77, 2-(3-chloro-5-nitro-2-pyridyl)-2,7-diazaspiro[4.6]undecane-6,8-dione]"
9,≥ 100,"O=C1CCCC(n2nc(Cl)ccc2=O)C(=O)N1 (stereo not shown) [Example 252, 3-(3-Chloro-6-oxopyridazin-1-yl)azepane-2,7-dione]"
10,≥ 100,"CC1(N2CCCC(=O)NC2=O)C(=O)N(CC(=O)O)c2ccccc21 (stereo not shown) [Example 292, 2-[3-(2,4-dioxo-1,3-diazepan-1-yl)-3-methyl-2-oxoindol-1-yl]acetic acid]"
11,≥ 100,"Nc1nccc(N2CCC3(CCCC(=O)NC3=O)C2)n1 (stereo not shown) [Example 182, 2-(2-Aminopyrimidin-4-yl)-2,7-diazaspiro[4.6]undecane-6,8-dione]"
12,≥ 100,"COc1cccc2nn(C3CCCC(=O)NC3=O)nc12 (stereo not shown) [Example 256, 3-(4-Methoxybenzotriazol-2-yl)azepane-2,7-dione]"
13,< 50,"Cc1sc2c(c1C)C(c1ccc(Cl)cc1)=N[C@@H](CC(=O)NCCCCCCCCn1ccc3c(N4CCC5(CCCC(=O)NC5=O)C4)ncnc31)c1nnc(C)n1-2 (stereo partly drawn) [Example 319, 2-[(9S)-7-(4-chlorophenyl)-4,5,13-trimethyl-3-thia-1,8,11,12-tetraazatricyclo[8.3.0.02,6]trideca-2(6),4,7,10,12-pentaen-9-yl]-N-[8-[4-(6,8-dioxo-2,7-diazaspiro[4.6]undecan-2-yl)pyrrolo[2,3-d]pyrimidin-7-yl]octyl]acetamide]"
14,≥ 100,"CC(C)(C)OC(=O)NCCCCCCc1ccc(-c2cn(C3CCCC(=O)NC3=O)nn2)cc1 (stereo not shown) [Example 150, tert-Butyl N-[6-[4-[1-(2,7-dioxoazepan-3-yl)triazol-4-yl]phenyl]hexyl]carbamate]"
15,≥ 100,"COc1ccnc(N2CCC3(CCCC(=O)NC3=O)C2)c1 (stereo not shown) [Example 125, 2-(4-Methoxy-2-pyridyl)-2,7-diazaspiro [4.6]undecane-6,8-dione]"
16,< 50,"Cc1sc2c(c1C)C(c1ccc(Cl)cc1)=N[C@@H](CC(=O)NCCc1ccc(S(=O)(=O)N3CC4(CC(=O)N(C5CCC(=O)NC5=O)C4=O)C3)cc1)c1nnc(C)n1-2 (stereo partly drawn) [Example 317, 2-[(9S)-7-(4-chlorophenyl)-4,5,13-trimethyl-3-thia-1,8,11,12-tetraazatricyclo[8.3.0.02,6]trideca-2(6),4,7,10,12-pentaen-9-yl]-N-[2-[4-[[6-(2,6-dioxopiperidin-3-yl)-5,7-dioxo-2,6-diazaspiro[3.4]octan-2-yl]sulfonyl]phenyl]ethyl]acetamide]"
17,< 50,"Cc1sc2c(c1C)C(c1ccc(Cl)cc1)=N[C@@H](CC(=O)NCCCCCCCCOc1ccc(C#N)c(N3CCC4(CCCC(=O)NC4=O)C3)c1)c1nnc(C)n1-2 (stereo partly drawn) [Example 320, 2-[(9S)-7-(4-chlorophenyl)-4,5,13-trimethyl-3-thia-1,8,11,12-tetraazatricyclo[8.3.0.02,6]trideca-2(6),4,7,10,12-pentaen-9-yl]-N-[8-[4-cyano-3-(6,8-dioxo-2,7-diazaspiro[4.6]undecan-2-yl)phenoxy]octyl]acetamide]"
18,≥ 100,"CC(=O)Nc1ccc(N2CCC3(CCCC(=O)NC3=O)C2)c(F)c1 (stereo not shown) [Example 88, N-[4-(6,8-dioxo-2,7-diazaspiro[4.6]undecan-2-yl)-3-fluorophenyl]acetamide]"
19,≥ 100,"Cn1ccc2c(N3CCC4(CCCC(=O)NC4=O)C3)ncnc21 (stereo not shown) [Example 37, 2-(7-methylpyrrolo[2,3-d]pyrimidin-4-yl)-2,7-diazaspiro[4.6]undecane-6,8-dione]"
20,< 50,"Cc1sc2c(c1C)C(c1ccc(Cl)cc1)=N[C@@H](CC(=O)NCCCCCCCCNC(=O)c1ccc3nc(N4CCC5(CCCC(=O)NC5=O)C4)sc3c1)c1nnc(C)n1-2 (stereo partly drawn) [Example 329, N-[8-[[2-[(9S)-7-(4-chlorophenyl)-4,5,13-trimethyl-3-thia-1,8,11,12-tetraazatricyclo[8.3.0.02,6]trideca-2(6),4,7,10,12-pentaen-9-yl]acetyl]amino]octyl]-2-(6,8-dioxo-2,7-diazaspiro[4.6]undecan-2-yl)-1,3-benzothiazole-6-carboxamide]"
21,≥ 100,"CC(C)(C)OC(=O)N(CC1CCCC(=O)NC1=O)c1ccc(F)cc1 (stereo not shown) [Example 24, tert-Butyl N-[(2,7-dioxoazepan-3-yl)methyl]-N-(4-fluorophenyl) carbamate]"
22,≥ 100,"COc1ccc2c(c1)nnn2C1CCCC(=O)NC1=O (stereo not shown) [Example 253, 3-(5-Methoxybenzotriazol-1-yl)azepane-2,7-dione]"
23,< 50,"Cc1sc2c(c1C)C(c1ccc(Cl)cc1)=N[C@@H](CC(=O)NCCCCCCn1ccc3c(C(=O)N4CCC5(CCCC(=O)NC5=O)CC4)cccc31)c1nnc(C)n1-2 [Example 326, 2-[(9S)-7-(4-chlorophenyl)-4,5,13-trimethyl-3-thia-1,8,11,12-tetraazatricyclo[8.3.0.02,6]trideca-2(6),4,7,10,12-pentaen-9-yl]-N-[6-[4-(7,9-dioxo-3,8-diazaspiro[5.6]undecane-3-carbonyl)indol-1-yl]hexyl]acetamide]"
24,< 50,"Cc1sc2c(c1C)C(c1ccc(Cl)cc1)=N[C@@H](CC(=O)NCCCCCCCCNC(=O)CCc1ccc3c(c1)sc(=O)n3C1CCCC(=O)NC1=O)c1nnc(C)n1-2 (stereo partly drawn) [Example 342, N-[8-[[2-[(9S)-7-(4-chlorophenyl)-4,5,13-trimethyl-3-thia-1,8,11,12-tetraazatricyclo[8.3.0.02,6]trideca-2(6),4,7,10,12-pentaen-9-yl]acetyl]amino]octyl]-3-[3-(2,7-dioxoazepan-3-yl)-2-oxo-1,3-benzothiazol-6-yl]propanamide]"
25,≥ 100,"O=C1CCCC2(CCN(c3ncc([N+](=O)[O-])cc3C(F)(F)F)C2)C(=O)N1 (stereo not shown) [Example 79, 2-(5-nitro-3-(trifluoromethyl)-2-pyridyl)-2,7-diazaspiro[4.6]undecane-6,8-dione]"
26,≥ 100,"CC(C)(C)OC(=O)c1ccc(N2CCC3(CC=CC(=O)NC3=O)C2)nc1 (stereo not shown) [Example 131, tert-Butyl 6-(6,8-dioxo-2,7-diazaspiro [4.6]undec-9-en-2-yl) pyridine-3-carboxylate]"
27,≥ 100,CC(C)(C)OC(=O)NCCCCCCCn1c(=O)n(C2CCCC(=O)NC2=O)c2ncccc21 (stereo not shown) [Example 201-2]
28,< 50,"C[C@@H]1Cc2c([nH]c3ccccc23)[C@@H](c2cnc(N3CCC(CN(C)CCCCCCCc4ccc(C(=O)N5CCC6(CCCC(=O)NC6=O)C5)cc4)CC3)nc2)N1CC(C)(C)F (stereo partly drawn) [Example 361-2, 2-[4-[7-[[1-[5-[(1R,3R)-2-(2-fluoro-2-methyl-propyl)-3-methyl-1,3,4,9-tetrahydropyrido[3,4-b]indol-1-yl]pyrimidin-2-yl]-4-piperidyl]methyl-methyl-amino]heptyl]benzoyl]-2,7-diazaspiro[4.6]undecane-6,8-dione]"
29,≥ 100,"O=C1CCCN(c2ccc3ncccc3c2)C(=O)N1 [Example 117, 1-Quinolin-6-yl-1,3-diazepane-2,4-dione]"
30,≥ 100,"O=C1CCC(N2C(=O)CC3(CN(C(=O)CNC(=O)c4ccccc4)C3)C2=O)C(=O)N1 (stereo not shown) [Example 55, N-[2-[6-(2,6-Dioxopiperidin-3-yl)-5,7-dioxo-2,6-diazaspiro[3.4]octan-2-yl]-2-oxoethyl]benzamide]"

row,SMILES,Kd [µM]
1,"Cc1sc2c(c1C)C(c1ccc(Cl)cc1)=N[C@@H](CC(=O)NCCCCCCCc1cn(C3CCCC(=O)NC3=O)nn1)c1nnc(C)n1-2 (stereo partly drawn) [Example 310, 2-[(9S)-7-(4-chlorophenyl)-4,5,13-trimethyl-3-thia-1,8,11,12-tetraazatricyclo[8.3.0.02,6]trideca-2(6),4,7,10,12-pentaen-9-yl]-N-[7-[1-(2,7-dioxoazepan-3-yl)triazol-4-yl]heptyl]acetamide]",≥ 100
